This experiment deals with humans. Briefly: Human anti-hair graying effect test. It is filed as in vivo. The settings on record: 0.25% sample applied on scalps of 10 male subjects, two times per day, 2 ml per time, six months; after use vs before use. The procedure:
As the test substances, compounds 1, 2 and 3 were used. Each test substance was dissolved in a mixed solution of an aqueous 70% ethanol solution plus 1% 1,3-butylene glycol and the resultant mixture used as the sample (test substance concentration: 0.25%).
The number of gray hairs among approximately 1000 hairs was counted before and after use of each sample. The changes of the ratios were used to compare the anti-hair graying actions. Specifically, each sample was applied on the scalps of 10 male subjects two times per day, 2 ml per time, continuously for six months. One thousand hairs of each of the subjects were counted divided into black hairs and gray hairs before the application and right after the end of six months after termination of the application to investigate the hair graying rate. The ratios (%) of the subjects where the hair graying rates after use declined 20% or more compared with before use, changed within ±20% or increased by 20% or more were respectively calculated.

From US20080064723A1, “Anti-Hair Graying Agent” (SHISEIDO COMPANY, LTD., priority 2004, published 2008) come the findings set out here.

As to `NC1CCC(C(=O)O)CC1` (stereo not drawn) [Compound 1, 4-aminocyclohexane carboxylic acid], the “Hair graying rate: Changing within ±20% (ratio of subjects)” value was 30%, the “Hair graying rate: Declining 20% or more (ratio of subjects)” value was determined as 70% and the “Hair graying rate: Increasing 20% or more (ratio of subjects)” value was found to be 0%.
For `O=C(O)C1CCNCC1` [Compound 2, 4-piperidine carboxylic acid], in that order: 30%, 60% and 10%.
For `CCOC(=O)C1CCNCC1` [Compound 3, 4-piperidine carboxylic acid ethyl ester], in that order: 20%, 70% and 10%.
